4 molecules from ChEMBL document CHEMBL4715817, “Python Cathelicidin CATHPb1 Protects against Multidrug-Resistant Staphylococcal Infections by Antimicrobial-Immunomodulatory Duality” (J Med Chem, 2018) can be followed below.

Activity calls are given as the source filed them. The rule behind the calls is not given here. Peptide text beside a SMILES is read from it.

Assay [1] relates to Macrophage. In words: Immunomodulatory activity in mouse peritoneal macrophage assessed as inhibition of LPS-induced MCP-1 level at 5 to 20 ug/ml measured after 24 hrs by ELISA. The assay is classed as functional, tissue-based. The following applies: dose 5-20 µg/ml. (In general: ELISA stands for enzyme-linked immunosorbent assay.)
Assay [2] has as its system Macrophage. Put plainly: Immunomodulatory activity in mouse peritoneal macrophage assessed as inhibition of LPS-induced IL-1beta level at 5 to 20 ug/ml measured after 24 hrs by ELISA. Format: functional, tissue-based. Conditions: dose 5-20 µg/ml.
Assay [3] concerns Macrophage. Put plainly: Immunomodulatory activity in mouse peritoneal macrophage assessed as inhibition of LPS-induced IL-1beta level at 5 to 20 ug/ml measured after 6 hrs by qRT-PCR analysis. Conditions: dose 5-20 µg/ml. The assay is classed as functional, tissue-based. In general terms: In qPCR the cycle at which signal appears reflects the starting amount.
The test system of assay [4] is Macrophage. Put plainly: Immunomodulatory activity in mouse peritoneal macrophage assessed as inhibition of LPS-induced IL-6 level at 5 to 20 ug/ml measured after 24 hrs by ELISA. The assay is classed as functional, tissue-based. The following applies: dose 5-20 µg/ml.
The nature of assay [5]: Immunomodulatory activity in mouse peritoneal macrophage assessed as inhibition of LPS-induced IL-6 level measured after 24 hrs by ELISA. Format: functional. Set-up: scale not given: the % may be the effect or the level left. Conditions: dose 5-20 µg/ml, at 5 to 20 µg/mL.
Assay [6] deals with Macrophage. In words: Immunomodulatory activity in mouse peritoneal macrophage assessed as inhibition of LPS-induced TNF-alpha level at 5 to 20 ug/ml measured after 6 hrs by qRT-PCR analysis. Format: functional, tissue-based. Conditions: dose 5-20 µg/ml.
Assay [7] concerns Macrophage. Put plainly: Immunomodulatory activity in mouse peritoneal macrophage assessed as inhibition of LPS-induced MCP-1 level at 5 to 20 ug/ml measured after 6 hrs by qRT-PCR analysis. Format: functional, tissue-based. Conditions: dose 5-20 µg/ml.
Assay [8] has as its system Macrophage. Put plainly: Immunomodulatory activity in mouse peritoneal macrophage assessed as inhibition of LPS-induced TNF-alpha level at 5 to 20 ug/ml measured after 24 hrs by ELISA. The assay is classed as functional, tissue-based. The following applies: dose 5-20 µg/ml.
Assay [9] relates to Macrophage. In words: Immunomodulatory activity in mouse peritoneal macrophage assessed as inhibition of LPS-induced IL-6 level at 5 to 20 ug/ml measured after 6 hrs by qRT-PCR analysis. Conditions: dose 5-20 µg/ml. The assay is classed as functional, tissue-based.
The test system of another assay is Staphylococcus aureus. In words: In vivo antibacterial activity against methicillin sensitive Staphylococcus aureus ATCC 25923 infected in kunming mouse assessed as increase in survival rate at 10 mg/kg, ip administered 4 hrs after infection and measured up to 7 days after infection relative to control. The assay is classed as functional. The following applies: time day <=7.

Assay [10] deals with Macrophage. Put plainly: Immunomodulatory activity in mouse peritoneal macrophage assessed as inhibition of LPS-induced TNF-alpha level at 20 ug/ml measured after 24 hrs by ELISA. Format: functional, tissue-based. The following applies: dose 20.0 µg/ml.
The test system of assay [11] is Macrophage. Put plainly: Immunomodulatory activity in mouse peritoneal macrophage assessed as inhibition of LPS-induced IL-6 level at 20 ug/ml measured after 6 hrs by qRT-PCR analysis. The assay is classed as functional, tissue-based. The following applies: dose 20.0 µg/ml.
Assay [12] concerns Macrophage. Put plainly: Immunomodulatory activity in mouse peritoneal macrophage assessed as inhibition of LPS-induced TNF-alpha level at 20 ug/ml measured after 6 hrs by qRT-PCR analysis. The assay is classed as functional, tissue-based. Conditions: dose 20.0 µg/ml.
In assay [13] the test system is Macrophage. In words: Immunomodulatory activity in mouse peritoneal macrophage assessed as inhibition of LPS-induced IL-6 level at 20 ug/ml measured after 24 hrs by ELISA. The assay is classed as functional, tissue-based. Conditions: dose 20.0 µg/ml.
In assay [14] the test system is Macrophage. In words: Immunomodulatory activity in mouse peritoneal macrophage assessed as inhibition of LPS-induced IL-1beta level at 20 ug/ml measured after 24 hrs by ELISA. The assay is classed as functional, tissue-based. The following applies: dose 20.0 µg/ml.
Assay [15] relates to Macrophage. In words: Immunomodulatory activity in mouse peritoneal macrophage assessed as inhibition of LPS-induced IL-1beta level at 20 ug/ml measured after 6 hrs by qRT-PCR analysis. The assay is classed as functional, tissue-based. Conditions: dose 20.0 µg/ml.

Consider `CC[C@H](C)[C@H](NC(=O)[C@H](CCCNC(=N)N)NC(=O)[C@H](Cc1c[nH]c2ccccc12)NC(=O)CNC(=O)[C@H](Cc1ccc(O)cc1)NC(=O)[C@H](CCCNC(=N)N)NC(=O)[C@H](CCCNC(=N)N)NC(=O)[C@H](C)NC(=O)[C@H](Cc1ccccc1)NC(=O)[C@H](CCCNC(=N)N)NC(=O)CNC(=O)[C@H](C)NC(=O)CNC(=O)[C@H](CCCNC(=N)N)NC(=O)[C@@H](NC(=O)[C@H](Cc1ccccc1)NC(=O)[C@H](CCCNC(=N)N)NC(=O)[C@H](CCCNC(=N)N)NC(=O)[C@H](Cc1c[nH]c2ccccc12)NC(=O)[C@H](CCCNC(=N)N)NC(=O)[C@H](CO)NC(=O)[C@H](CCCNC(=N)N)NC(=O)[C@@H](N)[C@@H](C)O)[C@@H](C)CC)C(=O)N[C@@H](C)C(=O)N[C@@H](CC(C)C)C(=O)NCC(=O)N[C@@H](CC(C)C)C(=O)N[C@H](C(=O)NCC(=O)O)C(C)C` (H-TRSRWRRFIRGAGRFARRYGWRIALGLVG-OH), for which the inhibition entry in the assay with Macrophage [1], in the assay on Macrophage [2], with Macrophage [3], in the assay with Macrophage [4], in the assay with Macrophage [6] and in the assay on Macrophage [7] was “Active” in each case. Also, the inhibition result with Macrophage [8] and with Macrophage [9] was “Active” each time. In addition, in assay [5], the Activity turned out to be 65.59%.
`CN[C@H](CC(C)C)C(=O)N[C@H]1C(=O)N[C@@H](CC(N)=O)C(=O)N[C@H]2C(=O)N[C@H]3C(=O)N[C@H](C(=O)N[C@H](C(=O)O)c4cc(O)cc(O)c4-c4cc3ccc4O)[C@H](O)c3ccc(c(Cl)c3)Oc3cc2cc(c3O[C@@H]2O[C@H](CO)[C@@H](O)[C@H](O)[C@H]2O[C@H]2C[C@](C)(N)[C@H](O)[C@H](C)O2)Oc2ccc(cc2Cl)[C@H]1O` [VANCOMYCIN]: the Activity with Staphylococcus aureus stood at 35%.
Regarding `CSCC[C@H](NC(=O)[C@H](C)NC(=O)[C@H](CCCNC(=N)N)NC(=O)[C@H](CC(C)C)NC(=O)[C@H](CCCNC(=N)N)NC(=O)[C@H](CCCNC(=N)N)NC(=O)[C@H](CCC(N)=O)NC(=O)[C@@H]1CCCN1C(=O)[C@H](C)NC(=O)[C@H](C)NC(=O)[C@@H](N)CCCNC(=N)N)C(=O)N[C@@H](C)C(=O)N[C@@H](CCCNC(=N)N)C(=O)N[C@@H](CC(C)C)C(=O)N[C@@H](CCCCN)C(=O)N[C@@H](CCCCN)C(=O)N[C@@H](Cc1ccccc1)C(=O)N[C@@H](C)C(=O)N[C@@H](CCC(=O)O)C(=O)N[C@@H](C)C(=O)NCC(=O)NCC(=O)N[C@@H](C)C(=O)N[C@@H](CC(=O)O)C(=O)N1CCC[C@H]1C(=O)N[C@@H](CC(=O)O)C(=O)N[C@@H](CO)C(=O)NCC(=O)NCC(=O)N[C@@H](CC(C)C)C(=O)N[C@@H](CCCNC(=N)N)C(=O)N[C@@H](C)C(=O)N[C@@H](CCCNC(=N)N)C(=O)N[C@@H](Cc1ccccc1)C(=O)N1CCC[C@H]1C(=O)N[C@@H](CCC(=O)O)C(=O)N[C@@H](CCCNC(=N)N)C(=O)O` (H-RAAPQRRLRAMARLKKFAEAGGADPDSGGLRARFPER-OH), the inhibition entry in the assay on Macrophage [10], in the assay with Macrophage [11], with Macrophage [12], with Macrophage [13], with Macrophage [14] and in the assay with Macrophage [15] was “Active” throughout.
As for `CC[C@H](C)[C@H](NC(=O)[C@H](CO)NC(=O)[C@H](CO)NC(=O)CNC(=O)CNC(=O)CNC(=O)[C@H](C)NC(=O)[C@H](Cc1ccccc1)NC(=O)[C@H](Cc1ccccc1)NC(=O)[C@H](CCCCN)NC(=O)[C@H](CCCCN)NC(=O)[C@H](CC(C)C)NC(=O)[C@H](CCCNC(=N)N)NC(=O)[C@H](CCCNC(=N)N)NC(=O)[C@H](CCSC)NC(=O)[C@H](Cc1ccccc1)NC(=O)[C@H](CCCCN)NC(=O)[C@H](CCCNC(=N)N)NC(=O)[C@H](Cc1ccccc1)NC(=O)CNC(=O)[C@H](CC(N)=O)NC(=O)[C@H](CCCNC(=N)N)NC(=O)[C@@H](N)CCCCN)C(=O)N[C@@H](C)C(=O)N[C@@H](Cc1cnc[nH]1)C(=O)N[C@H](C(=O)N[C@@H](CCCCN)C(=O)N[C@@H](CC(C)C)C(=O)N[C@@H](Cc1cnc[nH]1)C(=O)O)[C@@H](C)CC` (H-KRNGFRKFMRRLKKFFAGGGSSIAHIKLH-OH), the inhibition result in the assay with Macrophage [1], in the assay on Macrophage [2], in the assay on Macrophage [3], with Macrophage [4], in the assay on Macrophage [6] and with Macrophage [7] was “Active” in each case. The inhibition entry in the assay with Macrophage [8] and in the assay on Macrophage [9] was “Active” each time.
